Test results as given in patent publication US4122034A, “Antimicrobial compositions” (Schering Corporation, priority 1975, dated 1978).

Legend:
Type in all cases: cell-based
Enterococcus = experiment: In vitro antibacterial activity, dilution in Mueller Hinton Agar (Table I)
Procedure: (§1) All the tests were carried out and (when necessary) scored under standard conditions. "MIC" means "minimum inhibitory concentration."
(§2) In vitro Antibacterial Activity of 2-aminoalkyl-3-phenyl-
(§3) indoles of the formula I. Dilution in Mueller Hinton Agar pH 7.4

Escherichia coli = experiment: as above
Procedure: as §1, §2, §3

Klebsiella = experiment: as above
Procedure: as §1, §2, §3

Proteus mirabilis = experiment: as above; settings: Mueller Hinton Agar pH 7.4
Procedure: as §1, §2, §3

Proteus morganii = experiment: as above; settings: Morganella morganii; strain Valz; Mueller Hinton Agar pH 7.4
Procedure: as §1, §2, §3

Proteus rettgeri = experiment: as above; settings: Providencia rettgeri; 'Proteus rettgeri mirabilis' [sic]; Mueller Hinton Agar pH 7.4
Procedure: as §1, §2, §3

Proteus vulgaris = experiment: as above; settings: strain Napol, Mueller Hinton Agar pH 7.4
Procedure: as §1, §2, §3

Pseudomonas acruginosa = experiment: as above
Procedure: as §1, §2, §3

Salmonella = experiment: as above
Procedure: as §1, §2, §3

Staphylococcus aureus = experiment: as above; settings: Mueller Hinton Agar pH 7.4
Procedure: as §1, §2, §3

Streptococcus pyogenes = experiment: as above
Procedure: as §1, §2, §3

Bacteroides corrodens = experiment: In vitro activity against anaerobes in fluid Thioglycollate medium (Table II); settings: Eikenella corrodens
Procedure: as §1
(§4) In vitro activity of 2-aminoalkyl-3-phenylindoles of the formula I
(§5) against anaerobes in fluid Thioglycollate medium

Bacteroides fragilis = experiment: as above
Procedure: as §1, §4, §5

Clostridium histolyticum = experiment: as above; settings: Hathewaya histolytica
Procedure: as §1, §4, §5

Clostridium novyi = experiment: as above
Procedure: as §1, §4, §5

Clostridium septicum = experiment: as above
Procedure: as §1, §4, §5

Peptostreptococcus = experiment: as above
Procedure: as §1, §4, §5

Aspergillus niger 6275 = experiment: In vitro antifungal activity, dilutions in Sabouraud's Dextrose Broth (Table IV); settings: after 96 hours
Procedure: as §1
(§6) In vitro Antifungal Activity of 2-amioalkyl-3-phenylindoles
(§7) of the formula I against Dermetophytes and Aspergillus.
(§8) Dilutions in Sabouraud's Dextrose Broth.

Aspergillus sp. No. 3 = experiment: as above; settings: after 96 hours
Procedure: as §1, §6, §7, §8

Epidermophyton floccosum = experiment: as above; settings: after 96 hours
Procedure: as §1, §6, §7, §8

Microsporum distortum = experiment: as above; settings: after 96 hours
Procedure: as §1, §6, §7, §8

Microsporum nanum = experiment: as above; settings: Nannizzia nana; after 96 hours
Procedure: as §1, §6, §7, §8

Trichophyton ascoides = experiment: as above; settings: after 96 hours
Procedure: as §1, §6, §7, §8

Trichophyton discoides = experiment: as above; settings: after 96 hours
Procedure: as §1, §6, §7, §8

Trichophyton ferrugineum = experiment: as above; settings: Microsporum ferrugineum; after 96 hours
Procedure: as §1, §6, §7, §8

Trichophyton gallinae = experiment: as above; settings: after 96 hours
Procedure: as §1, §6, §7, §8

Trichophyton megninii = experiment: as above; settings: Trichophyton rubrum; after 96 hours
Procedure: as §1, §6, §7, §8

[1] = tested on: Trichophyton mentagrophytes; experiment: as above; settings: 96 h
Procedure: as §1, §6, §7, §8

Trichophyton rubrum = experiment: as above; settings: 96 h
Procedure: as §1, §6, §7, §8

[2] = tested on: Trichophyton schoenleinii; experiment: as above; settings: 96 h
Procedure: as §1, §6, §7, §8

Trichophyton soudenense = experiment: as above; settings: after 96 hours
Procedure: as §1, §6, §7, §8

Trichophyton tonsurans = experiment: as above; settings: after 96 hours
Procedure: as §1, §6, §7, §8

Tricoderm sp. = experiment: as above; settings: after 96 hours
Procedure: as §1, §6, §7, §8

Trychomonas vaginalis = experiment: In vitro Anti-Trichomonal activity (Table VII); settings: for IC50: 50% suppression, read-out: Minimal Level to Produce 50% Suppression; for IC90: 90% suppression, read-out: Minimal Level to Produce 90% Suppression
Procedure: as §1
In vitro Anti-Trichomonal Activity of some 2-aminoalkyl-3-
phenyl-indenes of formula II.

[3] = pH 7.4, strain 373, Mueller Hinton Agar pH 7.4
[4] = pH 7.4, strain 0928/72, Mueller Hinton Agar pH 7.4
[5] = pH 7.4, strain 777, Mueller Hinton Agar pH 7.4
[6] = pH 7.4, strain 1574-1, Mueller Hinton Agar pH 7.4
[7] = pH 7.4, strain 4195, Mueller Hinton Agar pH 7.4
[8] = pH 7.4, strain 10536, Mueller Hinton Agar pH 7.4
[9] = pH 7.4, strain JR66, Mueller Hinton Agar pH 7.4
[10] = pH 7.4, strain 121, Mueller Hinton Agar pH 7.4
[11] = pH 7.4, strain 3020, Mueller Hinton Agar pH 7.4
[12] = pH 7.4, strain AD17, Mueller Hinton Agar pH 7.4
[13] = pH 7.4, strain AD22, Mueller Hinton Agar pH 7.4
[14] = pH 7.4, strain G3694, Mueller Hinton Agar pH 7.4
[15] = pH 7.4, strain 130, Mueller Hinton Agar pH 7.4
[16] = pH 7.4, strain 138, Mueller Hinton Agar pH 7.4
[17] = pH 7.4, strain 762, Mueller Hinton Agar pH 7.4
[18] = pH 7.4, strain 8709, Mueller Hinton Agar pH 7.4
[19] = pH 7.4, strain Trav. 1, Mueller Hinton Agar pH 7.4
[20] = TYPHI, pH 7.4, B typhi, Mueller Hinton Agar pH 7.4
[21] = pH 7.4, C1 Oao, Mueller Hinton Agar pH 7.4
[22] = pH 7.4, C2 Cuban, Mueller Hinton Agar pH 7.4
[23] = pH 7.4, C2 Napc, Mueller Hinton Agar pH 7.4
[24] = pH 7.4, Salmonella ent. 1, Mueller Hinton Agar pH 7.4
[25] = pH 7.4, strain 27, Mueller Hinton Agar pH 7.4
[26] = pH 7.4, strain C, Mueller Hinton Agar pH 7.4
[27] = pH 7.4, strain Cruz, Mueller Hinton Agar pH 7.4
[28] = strain Haggerty, after 96 hours
[29] = strain not given, after 96 hours

NCc1[nH]c2ccc(Cl)cc2c1-c1ccc(Cl)cc1Cl [E]
7.5 µg/mL: MIC (Klebsiella; [10]) | MIC (Klebsiella; [12]) | MIC (Pseudomonas acruginosa; [15]) | MIC (Pseudomonas acruginosa; [18]) | MIC (Trichophyton ascoides) | MIC (Trichophyton discoides) | MIC (Trichophyton ferrugineum) | MIC ([1]; strain H377, after 96 hours) | MIC (Trichophyton soudenense) | MIC (Trichophyton tonsurans)
0.75 µg/mL: MIC (Bacteroides corrodens; 48 hrs) | MIC (Bacteroides fragilis; 48 hrs) | MIC (Bacteroides fragilis; 72 hrs) | MIC (Clostridium novyi; 48 hrs) | MIC (Clostridium novyi; 72 hrs) | MIC (Clostridium septicum; 48 hrs) | MIC (Clostridium septicum; 72 hrs) | MIC (Peptostreptococcus; 48 hrs) | MIC (Peptostreptococcus; 72 hrs)
17.5 µg/mL: MIC (Proteus mirabilis; pH 7.4, strain Peras) | MIC (Proteus morganii) | MIC (Proteus rettgeri) | MIC (Pseudomonas acruginosa; [16]) | MIC (Pseudomonas acruginosa; [17]) | MIC (Pseudomonas acruginosa; [19]) | MIC (Aspergillus niger 6275) | MIC (Aspergillus sp. No. 3) | MIC (Trichophyton gallinae) | MIC ([1]; strain B, after 96 hours) | MIC ([1]; strain C, after 96 hours)
0.3 µg/mL: MIC (Clostridium histolyticum; 48 hrs) | MIC (Clostridium histolyticum; 72 hrs)
0.8 µg/mL: MIC (Staphylococcus aureus; pH 7.4, strain Zeigler) | MIC (Streptococcus pyogenes; [27])
14 µg/mL: IC50 (Trychomonas vaginalis)
28 µg/mL: IC90 (Trychomonas vaginalis)
3 µg/mL: MIC (Enterococcus; [3]) | MIC (Enterococcus; [4]) | MIC (Escherichia coli; [5]) | MIC (Escherichia coli; [6]) | MIC (Escherichia coli; [7]) | MIC (Escherichia coli; [8]) | MIC (Escherichia coli; [9]) | MIC (Klebsiella; [11]) | MIC (Klebsiella; [13]) | MIC (Klebsiella; [14]) | MIC (Proteus mirabilis; pH 7.4, strain Hard) | MIC (Proteus vulgaris) | MIC (Salmonella; [20]) | MIC (Salmonella; [21]) | MIC (Salmonella; [22]) | MIC (Salmonella; [23]) | MIC (Salmonella; [24]) | MIC (Staphylococcus aureus; 209P, pH 7.4, strain 209P) | MIC (Staphylococcus aureus; pH 7.4, strain 59N) | MIC (Staphylococcus aureus; pH 7.4, strain Gray) | MIC (Staphylococcus aureus; pH 7.4, strain Wood) | MIC (Streptococcus pyogenes; [25]) | MIC (Streptococcus pyogenes; [26]) | MIC (Bacteroides corrodens; 72 hrs) | MIC (Epidermophyton floccosum) | MIC (Microsporum distortum) | MIC (Microsporum nanum) | MIC (Trichophyton megninii) | MIC ([1]; strain A, after 96 hours) | MIC ([1]; strain Young, after 96 hours) | MIC (Trichophyton rubrum; strain 3, after 96 hours) | MIC (Trichophyton rubrum; strain 360, after 96 hours) | MIC (Trichophyton rubrum; strain Blehl, after 96 hours) | MIC (Trichophyton rubrum; [28]) | MIC ([2]; strain 2, after 96 hours) | MIC [2, 29] | MIC (Tricoderm sp.)

NCc1[nH]c2ccc(Cl)cc2c1-c1ccccc1F [A, 2-Aminomethyl-5-chloro-3-(2-fluorophenyl)indole]
7.5 µg/mL: MIC (Enterococcus; [3]) | MIC (Enterococcus; [4]) | MIC (Escherichia coli; [6]) | MIC (Escherichia coli; [8]) | MIC (Klebsiella; [10]) | MIC (Klebsiella; [11]) | MIC (Klebsiella; [12]) | MIC (Klebsiella; [13]) | MIC (Klebsiella; [14]) | MIC (Proteus mirabilis; pH 7.4, strain Peras) | MIC (Salmonella; [20]) | MIC (Salmonella; [21]) | MIC (Salmonella; [22]) | MIC (Salmonella; [24]) | MIC (Staphylococcus aureus; 209P, pH 7.4, strain 209P) | MIC (Staphylococcus aureus; pH 7.4, strain Gray) | MIC (Streptococcus pyogenes; [25]) | MIC (Streptococcus pyogenes; [26]) | MIC (Bacteroides corrodens; 48 hrs) | MIC (Bacteroides corrodens; 72 hrs) | MIC (Bacteroides fragilis; 48 hrs) | MIC (Bacteroides fragilis; 72 hrs) | MIC (Clostridium histolyticum; 48 hrs) | MIC (Clostridium histolyticum; 72 hrs) | MIC (Clostridium novyi; 48 hrs) | MIC (Clostridium novyi; 72 hrs) | MIC (Clostridium septicum; 48 hrs) | MIC (Clostridium septicum; 72 hrs) | MIC (Trichophyton discoides) | MIC (Trichophyton ferrugineum) | MIC (Trichophyton gallinae) | MIC ([1]; strain A, after 96 hours) | MIC ([1]; strain B, after 96 hours) | MIC ([1]; strain C, after 96 hours) | MIC ([1]; strain H377, after 96 hours) | MIC ([1]; strain Young, after 96 hours) | MIC (Trichophyton rubrum; strain 3, after 96 hours) | MIC (Trichophyton rubrum; strain 360, after 96 hours) | MIC (Trichophyton rubrum; strain Blehl, after 96 hours) | MIC (Trichophyton rubrum; [28]) | MIC (Tricoderm sp.)
3 µg/mL: MIC (Escherichia coli; [5]) | MIC (Escherichia coli; [7]) | MIC (Escherichia coli; [9]) | MIC (Salmonella; [23]) | MIC (Staphylococcus aureus; pH 7.4, strain 59N) | MIC (Staphylococcus aureus; pH 7.4, strain Wood) | MIC (Staphylococcus aureus; pH 7.4, strain Zeigler) | MIC (Streptococcus pyogenes; [27]) | MIC (Peptostreptococcus; 48 hrs) | MIC (Peptostreptococcus; 72 hrs) | MIC (Epidermophyton floccosum) | MIC (Microsporum distortum) | MIC (Microsporum nanum) | MIC (Trichophyton megninii) | MIC ([2]; strain 2, after 96 hours)
40 µg/mL: IC90 (Trychomonas vaginalis)
17.5 µg/mL: MIC (Proteus mirabilis; pH 7.4, strain Hard) | MIC (Proteus morganii) | MIC (Proteus rettgeri) | MIC (Proteus vulgaris) | MIC (Pseudomonas acruginosa; [15]) | MIC (Pseudomonas acruginosa; [16]) | MIC (Pseudomonas acruginosa; [17]) | MIC (Pseudomonas acruginosa; [18]) | MIC (Pseudomonas acruginosa; [19]) | MIC (Aspergillus niger 6275) | MIC (Aspergillus sp. No. 3) | MIC (Trichophyton ascoides) | MIC [2, 29] | MIC (Trichophyton soudenense) | MIC (Trichophyton tonsurans)
24 µg/mL: IC50 (Trychomonas vaginalis)
